pIC50: −log10 of the molar value. Activity calls are given as the source filed them. The rule behind the calls is not given here.
What was measured:
[1] = test system: B16-F10; test: Effect on acetyl-SMC3 expression level in mouse B16-F10 cells at 1 to 8 uM incubated for 6 hrs by Western blot analysis; assay type: functional, cell-based; settings: dose 1-8 µM
[2] = test system: B16-F10; test: Effect on acetyl-H3 expression level in mouse B16-F10 cells at 1 to 4 uM incubated for 6 hrs by Western blot analysis; assay type: functional, cell-based; settings: dose 1-4 µM
[3] = test system: B16-F10; test: Effect on acetyl-SMC3 expression level in mouse B16-F10 cells at 1 to 4 uM incubated for 6 hrs by Western blot analysis; assay type: functional, cell-based; settings: dose 1-4 µM
[4] = test system: Jurkat; test: Induction of apoptosis in human Jurkat T cells assessed as increase in Bax protein expression at 0.2 to 2 uM measured after 6 hrs by Western blot analysis; assay type: functional, cell-based; settings: dose 0.2-2 µM
[5] = test system: Jurkat; test: Induction of apoptosis in human Jurkat cells assessed as upregulation of Ku70 expression at 0.2 to 2 uM measured after 24 hrs by Western blot analysis; assay type: functional, cell-based; settings: dose 0.2-2 µM
[6] = test system: Jurkat; test: Effect on acetyl-H3 expression level in human Jurkat T cells at 0.1 to 0.4 uM incubated for 6 hrs by Western blot analysis; assay type: functional, cell-based; settings: dose 0.1-0.4 µM
[7] = Cytotoxicity against human Jurkat cells assessed as reduction in cell viability incubated for 72 hrs by CCK-8 assay
[8] = test system: Jurkat; test: Upregulation of acetylated alpha-tubulin expression in human Jurkat T cells incubated for 6 hrs by Western blot analysis; assay type: functional, cell-based; settings: dose 0.1-2 µM
[9] = test system: MCF7; test: cells; assay type: functional, cell-based; settings: Homo sapiens, MCF7, 48 h
Description: Antiproliferative activity against human MCF7 cells assessed as inhibition of cell proliferation measured after 48 hrs by MTT assay

[10] = biological target: T1, Protein deacetylase HDAC6 (Homo sapiens, UniProt Q9UBN7); test: Inhibition of recombinant human N-terminal GST tagged HDAC6 expressed in baculovirus infected Sf9 insect cells using Ac-Leu-Gly-Lys (Ac)-AMC as substrate preincubated for 5 mins followed by substrate addition and measured after 30 mins by fluorescence microtiter plate reader assay
T1 sequence (Q9UBN7 whole entry): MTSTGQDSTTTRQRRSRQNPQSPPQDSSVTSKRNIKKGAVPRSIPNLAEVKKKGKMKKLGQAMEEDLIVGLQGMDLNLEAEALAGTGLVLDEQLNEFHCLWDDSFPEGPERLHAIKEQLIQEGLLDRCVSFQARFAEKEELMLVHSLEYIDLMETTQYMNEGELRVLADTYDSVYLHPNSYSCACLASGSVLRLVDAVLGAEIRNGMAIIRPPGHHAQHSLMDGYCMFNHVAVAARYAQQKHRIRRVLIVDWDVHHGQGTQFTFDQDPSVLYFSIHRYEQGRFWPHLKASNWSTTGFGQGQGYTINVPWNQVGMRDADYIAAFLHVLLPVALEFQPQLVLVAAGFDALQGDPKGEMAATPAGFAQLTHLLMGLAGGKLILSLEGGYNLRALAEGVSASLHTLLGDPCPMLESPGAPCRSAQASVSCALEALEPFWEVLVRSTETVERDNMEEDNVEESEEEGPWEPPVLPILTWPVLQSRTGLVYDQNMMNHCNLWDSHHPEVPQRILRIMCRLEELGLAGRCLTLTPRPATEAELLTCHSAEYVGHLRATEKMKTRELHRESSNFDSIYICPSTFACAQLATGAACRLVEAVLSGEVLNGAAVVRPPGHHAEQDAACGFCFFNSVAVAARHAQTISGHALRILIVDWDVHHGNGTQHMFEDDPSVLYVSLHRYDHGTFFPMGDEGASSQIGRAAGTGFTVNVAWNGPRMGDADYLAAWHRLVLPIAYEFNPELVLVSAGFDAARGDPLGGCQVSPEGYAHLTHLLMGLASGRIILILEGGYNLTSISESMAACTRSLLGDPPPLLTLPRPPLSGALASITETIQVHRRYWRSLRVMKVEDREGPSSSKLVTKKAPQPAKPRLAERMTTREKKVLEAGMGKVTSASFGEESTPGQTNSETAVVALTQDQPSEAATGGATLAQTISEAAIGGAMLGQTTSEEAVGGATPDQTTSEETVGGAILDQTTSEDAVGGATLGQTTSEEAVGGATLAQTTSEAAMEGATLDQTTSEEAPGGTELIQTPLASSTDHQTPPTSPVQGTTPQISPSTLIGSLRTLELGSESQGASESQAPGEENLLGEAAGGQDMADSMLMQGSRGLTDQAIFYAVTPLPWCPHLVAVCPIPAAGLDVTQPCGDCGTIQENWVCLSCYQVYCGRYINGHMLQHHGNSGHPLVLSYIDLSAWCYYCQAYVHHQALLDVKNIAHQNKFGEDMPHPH

[11] = test system: B16-F10; test: Induction of apoptosis in mouse B16-F10 cells assessed as increase in apoptotic cells at 0.5 uM incubated for 48 hrs by Annexin V-FITC/PI staining based flow cytometry analysis relative to control; assay type: functional
[12] = test system: HCT-116; test: cells; assay type: functional, cell-based; settings: Homo sapiens, HCT-116, 48 h
Description: Antiproliferative activity against human HCT-116 cells assessed as inhibition of cell proliferation measured after 48 hrs by MTT assay

[13] = test system: Jurkat; test: Upregulation of alpha-tubulin expression in human Jurkat T cells at 0.1 to 2 uM incubated for 6 hrs by Western blot analysis; assay type: functional, cell-based; settings: dose 0.1-2 µM
[14] = biological target: Histone deacetylase 1 (Homo sapiens, UniProt Q13547); test: Inhibition of recombinant human HDAC1 expressed in baculovirus expression system using Ac-Leu-Gly-Lys (Ac)-AMC as substrate preincubated for 5 mins followed by substrate addition and measured after 30 mins by fluorescence microtiter plate reader assay
[15] = biological target: Histone deacetylase 3 (Homo sapiens, UniProt O15379); test: Inhibition of recombinant human His-tagged HDAC3 expressed in baculovirus insect cells using Ac-Leu-Gly-Lys (Ac)-AMC as substrate preincubated for 5 mins followed by substrate addition and measured after 30 mins by fluorescence microtiter plate reader assay
[16] = test system: B16-F10; test: Upregulation of acetylated alpha-tubulin expression in mouse B16-F10 cells incubated for 6 hrs by Western blot analysis; assay type: functional, cell-based; settings: dose 0.1-2 µM
[17] = test system: Jurkat; test: Induction of apoptosis in human Jurkat T cells assessed as upregulation of acetylated Ku70 expression measured after 6 hrs by Western blot analysis; assay type: functional, cell-based; settings: dose 0.2-2 µM
[18] = test system: Jurkat; test: Induction of apoptosis in human Jurkat T cells assessed as downregulation of Bcl-2 expression at 0.2 to 2 uM incubated for 6 hrs by Western blot analysis; assay type: functional, cell-based; settings: dose 0.2-2 µM
[19] = test system: B16-F10; test: Induction of apoptosis in mouse B16-F10 cells assessed as increase in apoptotic cells at 0.1 uM incubated for 48 hrs by Annexin V-FITC/PI staining based flow cytometry analysis relative to control; assay type: functional
[20] = Antiproliferative activity against human YCC-11 cells assessed as cell growth inhibition; assay type: functional, cell-based
[21] = test system: Jurkat; test: Effect on acetyl-SMC3 expression level in human Jurkat T cells at 0.1 to 0.8 uM incubated for 6 hrs by Western blot analysis; assay type: functional, cell-based; settings: dose 0.1-0.8 µM
[22] = test system: B16-F10; test: Upregulation of alpha-tubulin expression in mouse B16-F10 cells at 0.1 to 2 uM incubated for 6 hrs by Western blot analysis; assay type: functional, cell-based; settings: dose 0.1-2 µM
[23] = test system: B16-F10; test: Induction of apoptosis in mouse B16-F10 cells assessed as increase in apoptotic cells at 1 uM incubated for 48 hrs by Annexin V-FITC/PI staining based flow cytometry analysis relative to control; assay type: functional
[24] = Antiproliferative activity against human YCC3/7 cells assessed as cell growth inhibition; assay type: functional, cell-based
[25] = test system: B16-F10; test: Effect on acetyl-H3 expression level in mouse B16-F10 cells at 1 to 8 uM incubated for 6 hrs by Western blot analysis; assay type: functional, cell-based; settings: dose 1-8 µM

Sequence of Histone deacetylase 1 (Q13547 whole entry): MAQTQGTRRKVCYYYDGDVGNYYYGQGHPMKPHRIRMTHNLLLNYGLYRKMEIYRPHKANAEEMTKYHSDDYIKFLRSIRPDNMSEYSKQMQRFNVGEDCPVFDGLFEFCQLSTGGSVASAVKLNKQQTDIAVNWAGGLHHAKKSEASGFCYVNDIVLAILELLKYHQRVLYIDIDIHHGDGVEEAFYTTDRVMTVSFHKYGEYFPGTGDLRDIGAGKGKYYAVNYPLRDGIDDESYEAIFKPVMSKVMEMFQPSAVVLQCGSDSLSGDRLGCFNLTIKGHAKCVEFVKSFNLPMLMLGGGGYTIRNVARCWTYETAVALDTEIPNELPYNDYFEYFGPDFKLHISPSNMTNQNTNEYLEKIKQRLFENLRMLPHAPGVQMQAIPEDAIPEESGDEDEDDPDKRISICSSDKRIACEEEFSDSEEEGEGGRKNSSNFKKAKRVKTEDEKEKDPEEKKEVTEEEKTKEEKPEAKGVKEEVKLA
Sequence of Histone deacetylase 3 (O15379 whole entry): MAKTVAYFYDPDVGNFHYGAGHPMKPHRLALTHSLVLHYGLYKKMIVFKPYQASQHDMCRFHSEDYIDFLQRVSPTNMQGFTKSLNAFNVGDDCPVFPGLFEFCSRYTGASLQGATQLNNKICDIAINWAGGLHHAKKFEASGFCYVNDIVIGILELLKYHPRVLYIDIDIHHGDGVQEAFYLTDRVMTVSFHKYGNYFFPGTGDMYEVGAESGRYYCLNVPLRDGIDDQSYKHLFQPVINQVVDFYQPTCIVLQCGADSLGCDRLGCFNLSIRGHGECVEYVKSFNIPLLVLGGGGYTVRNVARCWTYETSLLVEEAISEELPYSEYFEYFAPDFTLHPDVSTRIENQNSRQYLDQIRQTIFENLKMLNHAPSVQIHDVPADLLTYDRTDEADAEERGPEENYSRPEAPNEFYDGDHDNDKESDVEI

Question: Which Activity [1] does the source give for `COc1ccc(-c2ncc(C(=O)NCCCCCCC(=O)NO)s2)c(OC)c1` here?
Answer: Its Activity is “Active”.

Question: What about the Activity [2] of the same molecule?
Answer: Its Activity is “Active”.

Question: And the Activity [3]?
Answer: The Activity was “Active”.

Question: What about the Activity [4] of the same molecule?
Answer: The Activity was “Active”.

Question: What about the Activity [5] of the same molecule?
Answer: Its Activity is “inactive”.

Question: What about the Activity [6] of the same molecule?
Answer: Its Activity is “Active”.

Question: And the IC50 at 72 h [7]?
Answer: Its IC50 at 72 h is 160 nM.

Question: And the Activity [8]?
Answer: The Activity was “Dose-Dependent Effect”.

Question: And the pIC50 [9]?
Answer: The pIC50 was 6.04.

Question: And the pIC50 [10]?
Answer: Its pIC50 is 7.51.

Question: And the Activity [11]?
Answer: The Activity was 78.98%.

Question: And the pIC50 [12]?
Answer: Its pIC50 is 6.29.

Question: And the Activity [13]?
Answer: The Activity was “inactive”.

Question: And the pIC50 [14]?
Answer: Its pIC50 is 5.50.

Question: What about the pIC50 [15] of the same molecule?
Answer: The pIC50 was 4.98.

Question: And the Activity [16]?
Answer: Its Activity is “Dose-Dependent Effect”.

Question: What about the Activity [17] of the same molecule?
Answer: Its Activity is “Dose-Dependent Effect”.

Question: What about the Activity [18] of the same molecule?
Answer: Its Activity is “Active”.

Question: And the Activity [19]?
Answer: The Activity was 57.09%.

Question: And the pIC50 [20]?
Answer: The pIC50 was 6.04.

Question: And the Activity [21]?
Answer: The Activity was “Active”.

Question: And the Activity [22]?
Answer: The Activity was “inactive”.

Question: And the Activity [23]?
Answer: Its Activity is 87.91%.

Question: And the pIC50 [24]?
Answer: The pIC50 was 5.97.

Question: What about the Activity [25] of the same molecule?
Answer: Its Activity is “Active”.

Question: What does the source list for `COc1ccc(-c2ncc(C(=O)NCCCCCCC(=O)NO)[nH]2)c(OC)c1`?
Answer: Activity [1]: Active; Activity [2]: Active; Activity [3]: Active; Activity [4]: Active; Activity [5]: inactive; Activity [6]: Active; IC50 at 72 h [7]: 230 nM; Activity [8]: Dose-Dependent Effect; pIC50 [9]: 5.57; pIC50 [10]: 7.32; Activity [11]: 38.71%; pIC50 [12]: 5.93; Activity [13]: inactive; pIC50 [14]: 5.33; pIC50 [15]: 5.15; Activity [16]: Dose-Dependent Effect; Activity [17]: Dose-Dependent Effect; Activity [18]: Active; Activity [19]: 16.58%; pIC50 [20]: 5.89; Activity [21]: Active; Activity [22]: inactive; Activity [23]: 57.73%; pIC50 [24]: 5.82; Activity [25]: Active

Reference: ChEMBL document CHEMBL5042524, “Discovery of Novel Histone Deacetylase 6 (HDAC6) Inhibitors with Enhanced Antitumor Immunity of Anti-PD-L1 Immunotherapy in Melanoma” (J Med Chem, 2022)
